Results reported in patent publication EP3807241B1, “IMPROVEMENTS IN OR RELATING TO ORGANIC COMPOUNDS” (Givaudan SA, priority 2018, dated 2019).
Read-outs that look alike come from different tables or passages of the source. Blank lines part the entries; values can stand above or below the compound they belong to.

How the values were obtained:
[1] = test system: plated rat hepatocytes; format: in vitro ADME
Description: Short-term monolayer cultures of cryopreserved primary hepatocytes from rat were prepared in collagen coated 48-well plates to perform metabolic assays in a kinetic manner for up to 22 h.
Palatable primary male rat hepatocytes (Sprague-Dawley, Grade P pooled cryopreserved hepatocytes, for plated assays) and supplements were purchased from Biopredic International (Saint Grégoire, France). WEM (with Phenol Red, with GlutaMAX™, without HEPES) was purchased from Gibco™ (ThermoFisherScientific).
Cells were thawed following the supplier's protocol and seeded at a density of 450,000 cells/mL in 0.25 mL seeding medium (WEM supplemented with fetal bovine serum, Dexamethasone, penicillin-streptomycin, insulin, GlutaMAX™ and HEPES) using 48-well plates which were coated with collagen (Collagen I Rat Protein, Tail; Gibco™, ThermoFisherScientific) and incubated for 4-5 h to facilitate attachment. Then, the medium was changed to culturing medium (WEM supplemented with penicillin, streptomycin, insulin, hydrocortisone without serum) to prevent detachment of cells.
Test chemicals were dissolved in methanol (80-90% methanol) and directly added with the culture medium (0.8-0.9% final methanol concentration). For structure-activity studies, final concentration of test chemicals was 50 µM or 5 µM. Cells were incubated for 0.5-22 h in the presence of test chemicals. To stop the reactions, the culture medium was removed and 0.5 M citric acid (pH 2.0; 60 µL) and cold acetonitrile (60 µL) containing 2 µM decanoyl CoA as internal standard were added to each well. The attached cells were removed and disrupted by scraping the well with a pipette tip and by pipetting up and down several times, transferred in 1.5 mL tubes and frozen at -80°C. The cell lysates were defrozen, centrifuged (21,000 x g, 5 min, RT), and the supernatant was diluted with 1.36 mL Tris-buffer (4 mM) containing KCI (6 mM), MgCl2 (0.3 mM) and n-heptadecanoyl CoA as internal standard (0.2 µM). Samples were neutralized by addition of NaOH (42 µL of 1 M NaOH) and loaded onto solid phase extraction cartridges (OASIS HLB µEIution plate, Waters). Columns were washed with 200 µL of ammonium solution (1 M), and samples eluted sequentially with 50 µL acetonitrile and 50 µL water.
CoA conjugates were analyzed with high resolution LC-MS (LC-HRMS) on a Dionex UltiMate 3000 RS HPLC system coupled to a Q-Exactive orbitrap mass spectrometer (Thermo Scientific, Reinach, Switzerland) with electrospray ionization (ESI) in both positive and negative ionization mode. For liquid chromatography separation an Agilent Zorbax 300Extend-C18 column with dimensions 2.1 mm x 50 mm and particle size of 3.5 µm with a 2.1 mm x 10 mm pre-column of the same material was used. The flow rate was 0.4 mL/min. Eluent A consists of water containing 0.0025% ammonia (pH around 9.8) and eluent B consists of acetonitrile containing 0.0025% ammonia. A linear gradient was run from 95% eluent A (hold for 1 min) to 100% eluent B within 6 min (hold for 1 min), back to 95% eluent A within 0.5 min followed by 1.5 min equilibration time. The injection volume of the sample was 10 µl. The mass resolution of the HR-MS spectra was set to 70,000. The mass accuracy was <5ppm. […] Ion source parameters adjusted were as follows: sheath gas flow (30 arbitrary unit), auxiliary gas flow (10 arbitrary unit), capillary temperature (270°C), and source voltage (4kV in positive mode, -3kV in negative mode). Fragmentation was obtained from dissociation in an octopole collision cell using higher energy collision dissociation settings at 35 and 45 (arbitrary unit). The mass scan range was set from 120 to 1800 m/z.
Calibration standards were prepared with CoA, acetyl-CoA, benzoyl-CoA, TBBA-CoA, and octanoyl-CoA to determine the concentrations of CoA conjugates. Decanoyl-CoA and heptadecanoyl-CoA were used as internal standards. The limit of detection with this method is 0.005 µM for CoA conjugates. […]

[2] = GC odor threshold
[3] = test system: reproductive organs of male rats; conditions: rat, in vivo; cited from earlier work
[4] = test system: primates; conditions: cited from earlier work
[5] = test system: mice; conditions: mouse, in vivo; cited from earlier work
[6] = test system: guinea-pigs; conditions: guinea pig, in vivo; cited from earlier work
[7] = test system: reproductive organs of male dogs; conditions: dog, in vivo; cited from earlier work
[8] = test system: primary rat hepatocytes; conditions: TBBA treatment; cited from earlier work
[9] = male, Sprague-Dawley, rat, 0.5 h, 50 µM
[10] = male, Sprague-Dawley, rat, 4 h, 50 µM
[11] = male, Sprague-Dawley, rat, 22 h, 50 µM

- CoA Conjugates Detected in Plated Rat Hepatocytes (Total Amount) [1, 9]: 86 % of TBBA-CoA ex BMHCA
- CoA conjugate detected: 3-(4-isobutyl-2-methylcyclohexyl)propanoic acid-CoA [1, 9]: 3 % of TBBA-CoA ex BMHCA
- CoA conjugate detected: 3-(4-isobutyl-6-methylcyclohex-3-en-1-yl)propanoic acid [1, 9]: 58 % of TBBA-CoA ex BMHCA
- CoA conjugate detected: 3-(4-isobutyl-6-methylcyclohexa-1,3-dien-1-yl)propanoic acid-CoA [1, 9]: 21 % of TBBA-CoA ex BMHCA
- CoA conjugate detected: 4-isobutyl-6-methylcyclohex-3-ene-1-carboxylic acid-CoA [1, 9]: 4 % of TBBA-CoA ex BMHCA
- CoA Conjugates Detected in Plated Rat Hepatocytes (Total Amount) [1, 10]: 31 % of TBBA-CoA ex BMHCA
- CoA conjugate detected: 3-(4-isobutyl-6-methylcyclohex-3-en-1-yl)propanoic acid [1, 10]: 19 % of TBBA-CoA ex BMHCA
- CoA conjugate detected: 3-(4-isobutyl-6-methylcyclohexa-1,3-dien-1-yl)propanoic acid-CoA [1, 10]: 8 % of TBBA-CoA ex BMHCA
- CoA conjugate detected: 4-isobutyl-6-methylcyclohex-3-ene-1-carboxylic acid-CoA [1, 10]: 4 % of TBBA-CoA ex BMHCA
Structure (SMILES): CC(C)CC1=CCC(CCC=O)C(C)C1 (stereo not drawn) [3-(4-isobutyl-6-methylcyclohex-3-en-1-yl)propanal]

- main conjugate detected ([1]; male, Sprague-Dawley, rat, 50 µM): 4-isobutylbenzoic acid-CoA
- CoA Conjugates Detected in Plated Rat Hepatocytes (Total Amount) [1, 9]: 74 % of TBBA-CoA ex BMHCA
- CoA conjugate detected: 3-(4-isobutylcyclohex-3-en-1-yl)propanoic acid-CoA [1, 9]: 19 % of TBBA-CoA ex BMHCA
- CoA conjugate detected: 3-(4-isobutylcyclohexa-1,3-dien-1-yl)propanoic acid-CoA [1, 9]: 12 % of TBBA-CoA ex BMHCA
- CoA conjugate detected: 4-isobutylcyclohex-3-ene-1-carboxylic acid-CoA [1, 9]: 23 % of TBBA-CoA ex BMHCA
- CoA conjugate detected: 4-isobutylcyclohexa-1,3-diene-1-carboxylic acid-CoA [1, 9]: 8 % of TBBA-CoA ex BMHCA
- CoA Conjugates Detected in Plated Rat Hepatocytes (Total Amount) [1, 10]: 45 % of TBBA-CoA ex BMHCA
- CoA conjugate detected: 3-(4-isobutylcyclohex-3-en-1-yl)propanoic acid-CoA [1, 10]: 2 % of TBBA-CoA ex BMHCA
- CoA conjugate detected: 3-(4-isobutylcyclohexa-1,3-dien-1-yl)propanoic acid-CoA [1, 10]: 2 % of TBBA-CoA ex BMHCA
- CoA conjugate detected: 4-isobutylcyclohex-3-ene-1-carboxylic acid-CoA [1, 10]: 10 % of TBBA-CoA ex BMHCA
- CoA conjugate detected: 4-isobutylcyclohexa-1,3-diene-1-carboxylic acid-CoA [1, 10]: 8 % of TBBA-CoA ex BMHCA
- CoA Conjugates Detected in Plated Rat Hepatocytes (Total Amount) [1, 11]: 29 % of TBBA-CoA ex BMHCA
- CoA conjugate detected: 3-(4-isobutylcyclohex-3-en-1-yl)propanoic acid-CoA [1, 11]: 3 % of TBBA-CoA ex BMHCA
- CoA conjugate detected: 4-isobutylcyclohex-3-ene-1-carboxylic acid-CoA [1, 11]: 5 % of TBBA-CoA ex BMHCA
Structure (SMILES): CC(C)CC1=CCC(CCC=O)CC1 (stereo not drawn) [3-(4-isobutylcyclohex-3-en-1-yl)propanal]

- accumulation of CoA-conjugates (in words) [1]: significantly reduced accumulation
- CoA Conjugates Detected in Plated Rat Hepatocytes (Total Amount) [1, 9]: 62 % of TBBA-CoA ex BMHCA
- CoA conjugate detected: 3-(4-isopropyl-2-methylcyclohex-1-en-1-yl)propanoic acid-CoA [1, 9]: 22 % of TBBA-CoA ex BMHCA
- CoA conjugate detected: 3-(4-isopropyl-2-methylcyclohexa-1,5-dien-1-yl)propanoic acid-CoA [1, 9]: 34 % of TBBA-CoA ex BMHCA
- CoA conjugate detected: 3-(4-isopropyl-2-methylphenyl)propanoic acid-CoA [1, 9]: 2 % of TBBA-CoA ex BMHCA
- CoA conjugate detected: 4-isopropyl-2-methylcyclohex-1-ene-1-carboxylic acid-CoA [1, 9]: 4 % of TBBA-CoA ex BMHCA
- CoA Conjugates Detected in Plated Rat Hepatocytes (Total Amount) [1, 10]: 28 % of TBBA-CoA ex BMHCA
- CoA conjugate detected: 3-(4-isopropyl-2-methylcyclohex-1-en-1-yl)propanoic acid-CoA [1, 10]: 10 % of TBBA-CoA ex BMHCA
- CoA conjugate detected: 3-(4-isopropyl-2-methylcyclohexa-1,5-dien-1-yl)propanoic acid-CoA [1, 10]: 13 % of TBBA-CoA ex BMHCA
- CoA conjugate detected: 3-(4-isopropyl-2-methylphenyl)propanoic acid-CoA [1, 10]: 2 % of TBBA-CoA ex BMHCA
- CoA conjugate detected: 4-isopropyl-2-methylcyclohex-1-ene-1-carboxylic acid-CoA [1, 10]: 3 % of TBBA-CoA ex BMHCA
- CoA Conjugates Detected in Plated Rat Hepatocytes (Total Amount) [1, 11]: 9 % of TBBA-CoA ex BMHCA
- CoA conjugate detected: 3-(4-isopropyl-2-methylcyclohex-1-en-1-yl)propanoic acid-CoA [1, 11]: 3 % of TBBA-CoA ex BMHCA
- CoA conjugate detected: 3-(4-isopropyl-2-methylcyclohexa-1,5-dien-1-yl)propanoic acid-CoA [1, 11]: 3 % of TBBA-CoA ex BMHCA
- CoA conjugate detected: 4-isopropyl-2-methylcyclohex-1-ene-1-carboxylic acid-CoA [1, 11]: 3 % of TBBA-CoA ex BMHCA
Structure (SMILES): CC1=C(CCC=O)CCC(C(C)C)C1 (stereo not drawn) [3-(4-isopropyl-2-methylcyclo-hex-1-en-1-yl)propanal]
- GC Odor Threshold [2]: 0.022 ng/L

- accumulation of CoA-conjugates (in words) [1]: substantial accumulation
- CoA Conjugates Detected in Plated Rat Hepatocytes (Total Amount) [1, 9]: 124 % of TBBA-CoA ex BMHCA
- CoA conjugate detected: 3-(4-isopropylcyclohex-1-en-1-yl)propanoic acid-CoA [1, 9]: 53 % of TBBA-CoA ex BMHCA
- CoA conjugate detected: 3-(4-isopropylcyclohexa-1 ,5-dien-1-yl)propanoic acid-CoA [1, 9]: 36 % of TBBA-CoA ex BMHCA
- CoA conjugate detected: 4-isopropylcyclohex-1-ene-1-carboxylic acid-CoA [1, 9]: 23 % of TBBA-CoA ex BMHCA
- CoA conjugate detected: 4-isopropylcyclohexane-1-carboxylic acid-CoA [1, 9]: 12 % of TBBA-CoA ex BMHCA
- CoA Conjugates Detected in Plated Rat Hepatocytes (Total Amount) [1, 10]: 79 % of TBBA-CoA ex BMHCA
- CoA conjugate detected: 3-(4-isopropylcyclohex-1-en-1-yl)propanoic acid-CoA [1, 10]: 26 % of TBBA-CoA ex BMHCA
- CoA conjugate detected: 3-(4-isopropylcyclohexa-1 ,5-dien-1-yl)propanoic acid-CoA [1, 10]: 17 % of TBBA-CoA ex BMHCA
- CoA conjugate detected: 4-isopropylcyclohex-1-ene-1-carboxylic acid-CoA [1, 10]: 26 % of TBBA-CoA ex BMHCA
- CoA conjugate detected: 4-isopropylcyclohexane-1-carboxylic acid-CoA [1, 10]: 10 % of TBBA-CoA ex BMHCA
- CoA Conjugates Detected in Plated Rat Hepatocytes (Total Amount) [1, 11]: 31 % of TBBA-CoA ex BMHCA
- CoA conjugate detected: 4-isopropylcyclohex-1-ene-1-carboxylic acid-CoA [1, 11]: 24 % of TBBA-CoA ex BMHCA
- CoA conjugate detected: 4-isopropylcyclohexane-1-carboxylic acid-CoA [1, 11]: 7 % of TBBA-CoA ex BMHCA
Structure (SMILES): CC(C)C1CC=C(CCC=O)CC1 (stereo not drawn) [3-(4-isopropylcyclohex-1-en-1-yl)propanal]

Structure (SMILES): CC(C=O)Cc1ccc(C(C)(C)C)cc1 (stereo not drawn) [BMHCA, 3-(4-tert-butylphenyl)-2-methylpropanal]
- toxic effects on the reproductive organs [3]: toxic effects
- toxic effects [4]: No effects
- CoA Conjugates Detected in Plated Rat Hepatocytes (Total Amount) [1, 9]: 100 % of TBBA-CoA ex BMHCA
- CoA Conjugates Detected in Plated Rat Hepatocytes (Total Amount) [1, 10]: 100 % of TBBA-CoA ex BMHCA
- CoA Conjugates Detected in Plated Rat Hepatocytes (Total Amount) [1, 11]: 100 % of TBBA-CoA ex BMHCA
- toxic effects [5]: No effects
- toxic effects [6]: No effects
- toxic effects on the reproductive organs [7]: toxic effects

- p-tert-butyl-benzoyl-CoA accumulates to stable levels within ([1]; male, Sprague-Dawley, rat): 0.5 to 4 h
Structure (SMILES): CC(C)(C)c1ccc(C(=O)O)cc1 [TBBA, 4-(tert-butyl)benzoic acid]
- CoA, acetyl-CoA and citrate levels [8]: decreased
